Test results: publication PMC12146708 (Proceedings of the National Academy of Sciences of the …, 2025)
pKd: −log10 of the molar value.

Target: human Nav1.8 (Homo sapiens, UniProt Q9Y5Y9)
Assay: whole-cell manual patch clamp dose-response, […] °C
Type: cell-based

Chain of human Nav1.8 (Q9Y5Y9 whole entry): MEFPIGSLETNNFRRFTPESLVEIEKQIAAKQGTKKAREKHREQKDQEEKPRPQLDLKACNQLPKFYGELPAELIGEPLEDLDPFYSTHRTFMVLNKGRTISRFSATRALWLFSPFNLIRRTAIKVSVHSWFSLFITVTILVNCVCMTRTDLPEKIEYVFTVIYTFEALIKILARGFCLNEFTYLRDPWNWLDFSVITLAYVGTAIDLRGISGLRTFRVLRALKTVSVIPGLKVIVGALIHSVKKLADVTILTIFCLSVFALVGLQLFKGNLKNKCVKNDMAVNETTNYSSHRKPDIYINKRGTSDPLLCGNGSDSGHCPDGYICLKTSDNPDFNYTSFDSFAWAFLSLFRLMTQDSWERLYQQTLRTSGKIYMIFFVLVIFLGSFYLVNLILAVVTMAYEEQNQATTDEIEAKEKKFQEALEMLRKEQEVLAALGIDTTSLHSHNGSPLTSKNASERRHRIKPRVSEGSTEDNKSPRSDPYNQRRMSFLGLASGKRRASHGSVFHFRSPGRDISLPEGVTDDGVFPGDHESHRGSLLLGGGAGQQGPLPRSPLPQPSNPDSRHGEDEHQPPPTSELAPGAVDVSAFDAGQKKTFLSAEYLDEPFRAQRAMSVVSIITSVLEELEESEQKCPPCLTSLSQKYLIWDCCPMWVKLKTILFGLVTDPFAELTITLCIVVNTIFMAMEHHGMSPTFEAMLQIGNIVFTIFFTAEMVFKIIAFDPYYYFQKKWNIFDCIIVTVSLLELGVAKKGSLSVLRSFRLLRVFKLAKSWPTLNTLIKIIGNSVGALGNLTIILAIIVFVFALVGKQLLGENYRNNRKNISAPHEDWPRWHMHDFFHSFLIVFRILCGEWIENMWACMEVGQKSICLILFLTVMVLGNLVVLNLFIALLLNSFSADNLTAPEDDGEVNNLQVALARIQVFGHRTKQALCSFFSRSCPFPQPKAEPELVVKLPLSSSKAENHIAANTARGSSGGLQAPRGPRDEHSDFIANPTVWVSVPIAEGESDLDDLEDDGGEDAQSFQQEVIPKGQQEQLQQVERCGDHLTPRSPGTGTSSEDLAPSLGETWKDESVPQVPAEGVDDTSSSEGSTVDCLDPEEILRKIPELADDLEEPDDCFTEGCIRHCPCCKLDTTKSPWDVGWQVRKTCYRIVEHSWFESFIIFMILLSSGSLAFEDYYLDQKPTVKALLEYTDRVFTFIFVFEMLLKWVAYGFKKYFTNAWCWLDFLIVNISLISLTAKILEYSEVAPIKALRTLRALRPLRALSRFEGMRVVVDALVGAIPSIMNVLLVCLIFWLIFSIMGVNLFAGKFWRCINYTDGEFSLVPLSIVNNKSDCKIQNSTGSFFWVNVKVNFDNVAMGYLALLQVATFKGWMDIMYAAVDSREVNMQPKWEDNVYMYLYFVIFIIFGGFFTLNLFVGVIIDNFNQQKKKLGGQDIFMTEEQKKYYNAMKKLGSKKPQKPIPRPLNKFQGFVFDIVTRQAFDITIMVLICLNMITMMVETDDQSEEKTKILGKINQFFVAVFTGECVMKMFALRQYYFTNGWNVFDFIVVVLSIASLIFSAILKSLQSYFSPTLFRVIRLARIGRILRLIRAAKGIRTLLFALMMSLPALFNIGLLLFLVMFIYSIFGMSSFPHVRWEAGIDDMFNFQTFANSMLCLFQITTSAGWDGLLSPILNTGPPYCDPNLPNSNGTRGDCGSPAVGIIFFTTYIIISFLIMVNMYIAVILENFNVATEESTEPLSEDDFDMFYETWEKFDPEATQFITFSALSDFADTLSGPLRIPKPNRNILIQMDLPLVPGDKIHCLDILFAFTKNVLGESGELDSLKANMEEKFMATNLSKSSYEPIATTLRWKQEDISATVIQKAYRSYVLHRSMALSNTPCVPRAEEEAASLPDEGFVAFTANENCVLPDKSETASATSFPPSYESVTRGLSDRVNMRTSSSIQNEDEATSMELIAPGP
Chain of human Nav1.8 (Q9NY72 23-215 partner): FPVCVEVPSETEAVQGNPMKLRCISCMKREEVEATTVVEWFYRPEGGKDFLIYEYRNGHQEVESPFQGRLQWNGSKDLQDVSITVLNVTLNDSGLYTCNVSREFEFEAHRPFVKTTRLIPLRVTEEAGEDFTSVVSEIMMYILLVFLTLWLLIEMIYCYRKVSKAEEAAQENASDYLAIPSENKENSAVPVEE

pKd: 10.14
Compound: COc1c([C@H]2[C@H](C(=O)Nc3ccnc(C(N)=O)c3)O[C@@](C)(C(F)(F)F)[C@H]2C)ccc(F)c1F [VX-548]
